{"source": "patent US20250326708A1", "about": "“LONG-ACTING SPLEEN-TARGETING CATIONIC LIPID COMPOUND COMPRISING BENZENE RING STRUCTURE, COMPOSITION COMPRISING SAME, AND USE THEREOF” (Beijing Youcarekechuang Pharmaceutical Technology Co., Ltd., priority 2024, published 2025)", "key": {"female BALB/C mice [1]": {"tested_on": "female BALB/C mice", "test": "Expression of delivered mRNA in mice in vivo (IVIS in vivo imaging)", "conditions": "10 μg Fluc-mRNA via tail vein", "method": "LNP preparations containing 10 μg of Fluc-mRNA were injected via the tail vein into female BALB/C mice (4 to 6 weeks old, weighing 17 to 19 g). At specified time points after administration (6 h, 24 h, 48 h, and 7 d), the mice were intraperitoneally injected with fluorescent imaging substrates and allowed to move freely for 5 minutes. The average radiation intensity (corresponding to fluorescence intensity) of proteins expressed by the mRNA delivered by the LNP preparations in the mice in vivo was then detected using the IVIS Spectrum small-animal in vivo imaging system."}, "female BALB/C mice [2]": {"tested_on": "female BALB/C mice", "test": "Expression of delivered mRNA in different organs of mice (organ imaging)", "type": "in vivo", "method": "LNP preparations containing 5 μg of Fluc-mRNA were subcutaneously injected into female BALB/C mice (4 to 6 weeks old, weighing 17 to 19 g). At specified time points after administration (6 h), the mice were intraperitoneally injected with fluorescent imaging substrates and allowed to move freely for 5 minutes. The average radiation intensity (corresponding to fluorescence intensity) of proteins expressed by the mRNA delivered by the LNP preparations in the mice in vivo was then detected using the IVIS Spectrum small-animal in vivo imaging system. After sampling, the mice were killed by cervical dislocation and dissected, and the internal organs: heart, liver, spleen, lung, kidney, and lymph of mice were accurately isolated. The average radiation intensity (corresponding to fluorescence intensity) of proteins expressed by the mRNA delivered by the LNP preparations in various organs of mice was then detected using the IVIS Spectrum small-animal in vivo imaging system."}, "293T cells [3]": {"tested_on": "293T cells", "test": "Cell viability assay (CCK-8) with LNP preparations of Fluc-mRNA", "type": "cell-based", "method": "(§1) Cell recovery and passage: 293T cells were recovered and cultured in culture dishes. The cells were passaged until the required number of cells was obtained.\n(§2) Seeding plates: The cells in culture dishes were digested and counted, then seeded in a 96-well plate at 10,000 cells per well and seeded in a 12-well plate at 150,000 cells per well. The cells were cultured overnight until cell adhesion.\n(§3) The cationic lipids listed in Table 2 were each mixed with DSPC (AVT (Shanghai) Pharmaceutical Technology Co., Ltd.), cholesterol (AVT (Shanghai) Pharmaceutical Technology Co., Ltd.), and DMG-PEG2000 in a molar ratio of 49:10:39.5:1.5 and dissolved in ethanol to prepare ethanol lipid solutions. Using the ethanol injection method, the ethanol lipid solutions were quickly added to a citrate buffer (pH between 4 and 5), and vortexed for 30 seconds for later use. eGFP-mRNA (purchased from Shanghai BioHub Biotechnology Co., Ltd.), Fluc-mRNA (purchased from Shanghai BioHub Biotechnology Co., Ltd.), or Cy5 fluorescently labeled Leqvio (purchased from Sangon Biotech (Shanghai) Co., Ltd.) was diluted in a citrate buffer (pH between 4 and 5) to obtain an mRNA aqueous solution. A certain volume of the lipid solution and the mRNA aqueous solution were mixed to prepare liposomes at a total lipid-to-mRNA weight ratio of 15:1. The mixtures were sonicated at 25° C. for 15 minutes (ultrasonic frequency: 40 kHz, ultrasonic power: 800 W). The resulting liposomes were diluted 10-fold with PBS, followed by ultrafiltration using a 300 kDa ultrafiltration tube to remove ethanol. After adjusting the volume with PBS, LNP preparations encapsulating eGFP-mRNA or Fluc-mRNA were obtained, using cationic lipids, DSPC, cholesterol, and DMG-PEG2000 at a molar ratio of 49:10:39.5:1.5.\n(§4) Cell recovery and passage: The method was the same as described in Example 3.\n(§5) Seeding plates: The method was the same as described in Example 3.\nLNP preparations containing 1.5 μg of Fluc-mRNA (with the vector components of the LNP preparations of cationic lipids, DSPC, cholesterol, and DMG-PEG2000 in a molar ratio of 49:10:39.5:1.5, where the cationic lipids are those listed in Table 1) were added to the cell culture medium in a 96-well plate. After 24 hours of continued culture, 10 μL of CCK-8 solution was added to each well, and the culture plate was incubated in an incubator for 1 hour."}, "293T cells [4]": {"tested_on": "293T cells", "test": "Fluorescence detection of Fluc-mRNA (transfection efficiency) of LNP preparations", "type": "cell-based", "conditions": "Fluc-mRNA LNP", "method": "as §1, §2, §3, §4, §5\nLNP preparations containing 0.3 μg of Fluc-mRNA (with the vector components of the LNP preparations of cationic lipids, DSPC, cholesterol, and DMG-PEG2000 in a molar ratio of 49:10:39.5:1.5, where the cationic lipids are those listed in Table 1) were added to the cell culture medium in a 96-well plate. After 24 hours of continued culture, the corresponding reagents were added according to the instructions in the Gaussia Luciferase Assay Kit. Fluorescence intensity in each well was detected using the IVIS fluorescence detection system. The transfection efficiency of LNP preparations prepared with a series of cationic lipid compounds designed in the present disclosure, as well as cationic lipids from the prior art, including SM-102, HHMA, MC3, compound 7, and I-1, is shown in Table 4."}, "[5]": {"test": "Particle size and polydispersity index (PDI) of lipid nanoparticles, dynamic light scattering", "type": "physicochemical", "conditions": "LNP preparation with the named cationic lipid; 90° scattering angle, 25° C", "excerpt": "as §3\nThe particle size and polydispersity index (PDI) were measured using dynamic light scattering with a Malvern laser diffraction particle size analyzer.\n10 μL of liposome solution was diluted to 1 mL with RNase-free deionized water and added to the sample cell. Each sample was measured three times. The measurement conditions were as follows: 90° scattering angle, 25° C."}, "[6]": {"conditions": "6 hours after 5 μg Fluc-mRNA subcutaneously"}}, "note": "Where “and” joins values, the source holds several entries; their conditions need not be identical. Equal values may be shown once."}
{"smiles": "CCCCCCCCc1ccc(CCC(CO)(CO)NCCCCCCNC(=O)C(CCCCCC)CCCCCCCC)cc1", "note": "(centres unmarked) [YK-908, 2-hexyl-N-(6-((1-hydroxy-2-(hydroxymethyl)-4-(4-octylphenyl)butan-2-yl)amino)hexyl) decanamide]", "values": [{"measurement": "Average radiation intensity, in vivo imaging", "setting": "female BALB/C mice [1]; 6 h", "value": 8918424}, {"measurement": "Average radiation intensity, in vivo imaging", "setting": "female BALB/C mice [1]; 24 h", "value": 1176543}, {"measurement": "Average radiation intensity, in vivo imaging", "setting": "female BALB/C mice [1]; 48 h", "value": 344643}, {"measurement": "Average radiation intensity, in vivo imaging", "setting": "female BALB/C mice [1]; 7 d", "value": 64325}, {"measurement": "Average radiation intensity of mouse organs: Heart", "setting": "female BALB/C mice [2]; [6]", "value": 0}, {"measurement": "Average radiation intensity of mouse organs: Kidney", "setting": "female BALB/C mice [2]; [6]", "value": 0}, {"measurement": "Average radiation intensity of mouse organs: Liver", "setting": "female BALB/C mice [2]; [6]", "value": 1423}, {"measurement": "Average radiation intensity of mouse organs: Lung", "setting": "female BALB/C mice [2]; [6]", "value": 0}, {"measurement": "Average radiation intensity of mouse organs: Lymph", "setting": "female BALB/C mice [2]; [6]", "value": 0}, {"measurement": "Average radiation intensity of mouse organs: Spleen", "setting": "female BALB/C mice [2]; [6]", "value": 168302}, {"measurement": "Expression level of mRNA in the spleen, times that of SM-102", "setting": "female BALB/C mice [2]; spleen, 6 h, vs SM-102", "value": 6.59, "unit": "times"}, {"measurement": "Expression level of mRNA in the spleen, times that of YK-501", "setting": "female BALB/C mice [2]; spleen, 6 h, vs YK-501", "value": 11.83, "unit": "times"}, {"measurement": "Expression level of mRNA in the spleen, times that of YK-506", "setting": "female BALB/C mice [2]; spleen, 6 h, vs YK-506", "value": 2.36, "unit": "times"}, {"measurement": "Cell viability", "setting": "293T cells [3]; LNP with 1.5 μg Fluc-mRNA, 24 hours, CCK-8", "value": 89, "unit": "%"}, {"measurement": "Cell viability higher than that of YK-907", "setting": "293T cells [3]; difference vs YK-907", "value": 16, "unit": "%"}, {"measurement": "Cellular transfection efficiency, times that of HHMA", "setting": "293T cells [4]; vs HHMA", "value": 5.01, "unit": "times"}, {"measurement": "Cellular transfection efficiency, times that of I-1", "setting": "293T cells [4]; vs I-1", "value": 25.01, "unit": "times"}, {"measurement": "Cellular transfection efficiency, times that of Lipofectamine 3000", "setting": "293T cells [4]; vs Lipofectamine 3000", "value": 6.02, "unit": "times"}, {"measurement": "Cellular transfection efficiency, times that of MC3", "setting": "293T cells [4]; vs MC3", "value": 53.42, "unit": "times"}, {"measurement": "Cellular transfection efficiency, times that of SM-102", "setting": "293T cells [4]; vs SM-102", "value": 3.55, "unit": "times"}, {"measurement": "Cellular transfection efficiency, times that of YK-501", "setting": "293T cells [4]; vs YK-501", "value": 109.64, "unit": "times"}, {"measurement": "Cellular transfection efficiency, times that of YK-506", "setting": "293T cells [4]; vs YK-506", "value": 7.75, "unit": "times"}, {"measurement": "Cellular transfection efficiency, times that of YK-907", "setting": "293T cells [4]; vs YK-907", "value": "134 times and 134.49 times"}, {"measurement": "Cellular transfection efficiency, times that of compound 7", "setting": "293T cells [4]; vs compound 7", "value": 19.69, "unit": "times"}, {"measurement": "PDI", "setting": "[5]", "value": 12.2, "unit": "%"}, {"measurement": "Particle size", "setting": "[5]", "value": 121, "unit": "nm"}]}
